# Assay results as given in patent US4699905A, “Perhydrothiazepine derivatives, their preparation and their therapeutic use” (Sankyo Company, Limited, priority 1984, dated 1987).
# pIC50: −log10 of the molar value.
# Biological target: T1, ACE extracted from rabbit lungs (Oryctolagus cuniculus, UniProt P12822)
# T1 construct: solutions of ACE extracted from rabbit lungs; from tissue; host or cells: rabbit lung
# T1 sequence (P12822 34-1310): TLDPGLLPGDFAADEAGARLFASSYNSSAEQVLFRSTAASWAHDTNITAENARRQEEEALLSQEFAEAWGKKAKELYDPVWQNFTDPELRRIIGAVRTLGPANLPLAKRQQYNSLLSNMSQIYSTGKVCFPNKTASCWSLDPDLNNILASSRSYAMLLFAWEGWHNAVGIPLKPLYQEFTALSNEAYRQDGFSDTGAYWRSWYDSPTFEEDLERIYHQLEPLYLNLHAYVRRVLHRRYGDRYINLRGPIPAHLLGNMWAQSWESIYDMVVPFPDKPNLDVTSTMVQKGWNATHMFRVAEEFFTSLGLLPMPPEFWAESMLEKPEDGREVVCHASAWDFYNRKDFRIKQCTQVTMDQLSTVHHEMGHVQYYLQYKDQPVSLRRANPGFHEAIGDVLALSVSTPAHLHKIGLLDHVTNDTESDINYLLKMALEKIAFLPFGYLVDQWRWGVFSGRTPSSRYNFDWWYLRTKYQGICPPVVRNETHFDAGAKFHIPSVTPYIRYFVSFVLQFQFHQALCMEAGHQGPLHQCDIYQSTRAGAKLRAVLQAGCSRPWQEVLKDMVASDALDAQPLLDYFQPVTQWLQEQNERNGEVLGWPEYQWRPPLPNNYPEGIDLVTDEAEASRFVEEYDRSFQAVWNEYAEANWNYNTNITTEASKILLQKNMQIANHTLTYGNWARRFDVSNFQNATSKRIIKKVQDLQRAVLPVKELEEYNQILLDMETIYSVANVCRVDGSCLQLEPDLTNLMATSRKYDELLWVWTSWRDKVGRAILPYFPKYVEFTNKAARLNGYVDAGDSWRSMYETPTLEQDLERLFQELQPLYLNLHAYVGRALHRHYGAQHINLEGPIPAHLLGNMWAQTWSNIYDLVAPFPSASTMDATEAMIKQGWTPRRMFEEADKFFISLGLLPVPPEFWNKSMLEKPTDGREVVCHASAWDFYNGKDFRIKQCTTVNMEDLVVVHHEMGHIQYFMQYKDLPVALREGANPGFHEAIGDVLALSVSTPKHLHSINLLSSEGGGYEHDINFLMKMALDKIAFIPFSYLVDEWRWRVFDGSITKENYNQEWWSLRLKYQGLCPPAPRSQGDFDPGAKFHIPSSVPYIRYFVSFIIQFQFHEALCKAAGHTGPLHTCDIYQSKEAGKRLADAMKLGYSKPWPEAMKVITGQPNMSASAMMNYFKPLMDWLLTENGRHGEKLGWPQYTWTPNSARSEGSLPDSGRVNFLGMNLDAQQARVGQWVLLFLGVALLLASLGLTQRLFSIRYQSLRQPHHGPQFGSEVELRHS
# Assay: inhibition of ACE activity in vitro (hippurylhistidylleucine substrate; procedure of Cushman et al.)
# Assay type: biochemical
# Conditions: borate buffer with sodium chloride, pH 8.3, 37° C., 30 minutes, hippuric acid by UV 228 nm
# Experimental: As noted above, the compounds of the present invention have the ability to inhibit the activity of ACE, the enzyme which converts angiotensin I to angiotensin II and also inactivates bradykinin. […] W. Cushman et al. [Biochemical Pharmachology, 20, 1637 (1971)]. […] The enzymatic reaction was allowed to proceed at 37° C. for 30 minutes, after which time the reaction was terminated by adding 1N aqueous hydrochloric acid. […] The residual hippuric acid was dissolved in water. The amount of hippuric acid in the resulting aqueous solution was determined by the absorbency to ultraviolet radiation at 228 nm. These values were then plotted to form a curve indicating the relationship between the amount of hippuric acid formed and the concentration of the test compound. The IC50 value can be obtained by reading on this curve the concentration of the test compound which reduces the amount of hippuric acid formed to one half of that formed when no test compound is present.
row,pIC50,SMILES
1,8.62,"O=C(O)CN1CC(c2ccccc2)SCC(NC(CCc2ccccc2)C(=O)O)C1=O (single isomer, unassigned) [C]"
2,8.60,"O=C(O)CN1CC(c2ccsc2)SCC(NC(CCc2ccccc2)C(=O)O)C1=O (single isomer, unassigned) [D]"
3,8.62,"O=C(O)CN1CC(c2cccs2)SCC(NC(CCc2ccccc2)C(=O)O)C1=O (single isomer, unassigned) [E]"
4,8.52,"O=C(O)CN1CC(c2ccco2)SCC(NC(CCc2ccccc2)C(=O)O)C1=O (single isomer, unassigned) [F]"
5,8.80,"O=C(O)CN1CC(c2cccc3ccccc23)SCC(NC(CCc2ccccc2)C(=O)O)C1=O (single isomer, unassigned) [H]"
6,8.70,"O=C(O)CN1CC(c2ccc3ccccc3c2)SCC(NC(CCc2ccccc2)C(=O)O)C1=O (single isomer, unassigned) [I]"
7,8.96,O=C(O)CN1C(=O)[C@@H](N[C@@H](CCc2ccccc2)C(=O)O)CSC[C@H]1c1ccccc1 [A]
8,8.80,CC(C)[C@@H]1CSC[C@H](N[C@@H](CCc2ccccc2)C(=O)O)C(=O)N1CC(=O)O [B]
9,8.85,O=C(O)CN1C(=O)[C@@H](N[C@@H](CCc2ccccc2)C(=O)O)CSC[C@H]1c1cccs1 [G]
10,8.52,C[C@@H]1CSC[C@H](N[C@@H](CCc2ccccc2)C(=O)O)C(=O)N1CC(=O)O [J]
11,8.89,O=C(O)CN1C(=O)[C@@H](N[C@@H](CCc2ccccc2)C(=O)O)CSC[C@@H]1Cc1ccccc1 [K]
